These results are taken from US11369599B2, “Melt-extruded solid dispersions containing an apoptosis-inducing agent” (AbbVie Inc., priority 2014, dated 2022).

Where two headings read alike, the source gives them in different places.

One data set deals with Bcl-2 protein (Homo sapiens (Human), UniProt P10415). In words: TR-FRET (Time-Resolved Fluorescence-Resonance-Energy-Transfer) Bcl-2 binding assay. An excerpt:
The smaller the Ki value, the greater is the binding affinity.

The nature of data set [1]: log D at pH 7.4 by an HPLC method. It is filed as physicochemical.
A short description of data set [2]: First-in-human Phase 1 study (safety, PK) in relapsed or refractory CLL. It is filed as in vivo. The following applies: for AUC(0-inf): read-out: AUC (AUCINF). On the procedure:
Three subjects were enrolled in the first cohort of CLL arm.
Subject 1: bulky disease, initial dose=200 mg
Subject 2: non-bulky disease, initial dose=200 mg
Subject 3: bulky disease, initial dose=100 mg
The dosing scheme for CLL arm was as follows: single dose on Week 1 Day −3; QD dose started on Week 1 Day 1. PK sampling was done on Week 1 Day −3 and Week 3 Day 1.

The mark [3] stands for this setting: human CLL, Week 1 Day-3 single dose, Mean of 3 subjects.
[4] abbreviates: human CLL, Week 1 Day-3 single dose, Subject 1, 200 mg.
[5] abbreviates: human CLL, Week 1 Day-3 single dose, Subject 2, 200 mg.
Where [6] appears, read: human CLL, Week 1 Day-3 single dose, Subject 3, 100 mg.
The mark [7] stands for this setting: human CLL, Week 3 Day 1, QD dosing, ID 101, 150 mg.
The mark [8] stands for this setting: human, plasma, oral, 100 mg, human CLL, Week 1 Day-3 single dose, Subject 3, 100 mg.
[9] abbreviates: human, plasma, oral, 200 mg, human CLL, Week 1 Day-3 single dose, Subject 1, 200 mg.
The mark [10] stands for this setting: human, plasma, oral, 200 mg, human CLL, Week 1 Day-3 single dose, Subject 2, 200 mg.

Bcl-2 protein, sequence (P10415 whole entry): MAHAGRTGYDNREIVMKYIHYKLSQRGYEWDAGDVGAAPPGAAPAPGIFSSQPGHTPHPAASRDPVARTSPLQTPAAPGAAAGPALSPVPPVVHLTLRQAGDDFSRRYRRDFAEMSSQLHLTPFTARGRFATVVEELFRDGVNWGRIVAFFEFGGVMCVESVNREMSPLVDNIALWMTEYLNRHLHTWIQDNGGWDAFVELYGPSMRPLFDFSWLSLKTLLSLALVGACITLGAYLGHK

As usually defined, the Ki is a dissociation constant, usually derived from enzyme kinetics or from competition with a known ligand. High values mean lower affinity, low ones higher affinity. `COC1(C)CCC(c2ccc(Cl)cc2)=C(CN2CCN(c3ccc(C(=O)NS(=O)(=O)c4ccc(NCC5CCC(C)(O)CC5)c([N+](=O)[O-])c4)c(Oc4cnc5[nH]ccc5c4)c3)CC2)C1` (stereo not drawn) [Compound 377, 4-(4-{[2-(4-chlorophenyl)-5-methoxy-5-methylcyclohex-1-en-1-yl]methyl}piperazin-1-yl)-N-[(4-{[(trans-4-hydroxy-4-methylcyclohexyl)methyl]amino}-3-nitrophenyl)sulfonyl]-2-(1H-pyrrolo[2,3-b]pyridin-5-yloxy)benzamide]: the Ki on Bcl-2 protein was < 0.001 nM.
As usually defined, the log D is the decadic logarithm of the distribution of all forms, ionised or not, between an organic phase and buffer at a given pH. Read a low log D as lower lipophilicity. On to `CC1(C)CCC(CN2CCN(c3ccc(C(=O)NS(=O)(=O)c4ccc(NCC5CCC(C)(O)CC5)c([N+](=O)[O-])c4)c(Oc4cnc5[nH]ccc5c4)c3)CC2)=C(c2ccc(Cl)cc2)C1` (stereo not drawn) [Compound 337, 4-(4-{[2-(4-chlorophenyl)-4,4-dimethylcyclohex-1-en-1-yl]methyl}piperazin-1-yl)-N-[(4-{[(trans-4-hydroxy-4-methylcyclohexyl)methyl]amino}-3-nitrophenyl)sulfonyl]-2-(1H-pyrrolo[2,3-b]pyridin-5-yloxy)benzamide], for which the “log D” value in data set [1] stood at 5.48.
On to `CC1(C)CCC(CN2CCN(c3ccc(C(=O)NS(=O)(=O)c4ccc(OCC5CCC(C)(O)CC5)c(Cl)c4)c(Oc4cnc5[nH]ccc5c4)c3)CC2)=C(c2ccc(Cl)cc2)C1` (stereo not drawn) [Compound 362, N-({3-chloro-4-[(trans-4-hydroxy-4-methylcyclohexyl)methoxy]phenyl}sulfonyl)-4-(4-{[2-(4-chlorophenyl)-4,4-dimethylcyclohex-1-en-1-yl]methyl}piperazin-1-yl)-2-(1H-pyrrolo[2,3-b]pyridin-5-yloxy)benzamide], for which the affinity on Bcl-2 protein, expressed as Ki, was 0.016 nM.
On the same count and under the same terms, the figure for `CC1(C)CCC(CN2CCN(c3ccc(C(=O)NS(=O)(=O)c4cnc(NCC5CCC(C)(O)CC5)c([N+](=O)[O-])c4)c(Oc4cnc5[nH]ccc5c4)c3)CC2)=C(c2ccc(Cl)cc2)C1` (stereo not drawn) [Compound 376, 4-(4-{[2-(4-chlorophenyl)-4,4-dimethylcyclohex-1-en-1-yl]methyl}piperazin-1-yl)-N-[(6-{[(cis-4-hydroxy-4-methylcyclohexyl)methyl]amino}-5-nitropyridin-3-yl)sulfonyl]-2-(1H-pyrrolo[2,3-b]pyridin-5-yloxy)benzamide] is < 0.001 nM.
With `CC1(C)CCC(CN2CCN(c3ccc(C(=O)NS(=O)(=O)c4ccc(NCC5CCC(C)(O)CC5)c([N+](=O)[O-])c4)c(Oc4cnc5[nH]ccc5c4)c3)CC2)=C(c2ccc(Cl)cc2)C1` (stereo not drawn) [Compound 338, 4-(4-{[2-(4-chlorophenyl)-4,4-dimethylcyclohex-1-en-1-yl]methyl}piperazin-1-yl)-N-[(4-{[(cis-4-hydroxy-4-methylcyclohexyl)methyl]amino}-3-nitrophenyl)sulfonyl]-2-(1H-pyrrolo[2,3-b]pyridin-5-yloxy)benzamide], the “log D” value in data set [1] came to 5.67.
As usually defined, the CL/F is clearance divided by bioavailability, as obtained after extravascular dosing. What is called Tmax is the time at which the peak concentration occurs. A word on the Cmax: it is the peak of the concentration-time curve. What is called AUC is the area under the concentration-time curve, a measure of exposure. As for `CC1(C)CCC(CN2CCN(c3ccc(C(=O)NS(=O)(=O)c4ccc(NCC5CCOCC5)c([N+](=O)[O-])c4)c(Oc4cnc5[nH]ccc5c4)c3)CC2)=C(c2ccc(Cl)cc2)C1` [Compound 5, 4-(4-{[2-(4-chlorophenyl)-4,4-dimethylcyclohex-1-en-1-yl]methyl}piperazin-1-yl)-N-({3-nitro-4-[(tetrahydro-2H-pyran-4-ylmethyl)amino]phenyl}sulfonyl)-2-(1H-pyrrolo[2,3-b]pyridin-5-yloxy)benzamide], the CL/F is 4.7 L/h in data set [2] (setting [3]); 8.6 L/h in data set [2] (setting [4]); 2.6 L/h in data set [2] (setting [5]); 2.8 L/h in data set [2] (setting [6]); 7.1 L/h in data set [2] (setting [7]). Moreover, the Cmax/Dose in data set [2] (setting [3]) was 0.008 (μg/mL)/mg; in data set [2] (setting [4]), 0.0037 (μg/mL)/mg; in data set [2] (setting [5]), 0.0079 (μg/mL)/mg; in data set [2] (setting [6]), 0.0119 (μg/mL)/mg; in data set [2] (setting [7]), 0.0089 (μg/mL)/mg. Besides, the Tmax in data set [2] (human CLL, Week 1 Day-3 single dose, Subject 1, 200 mg, 50 mg tablets) was 6 h; in data set [2] (setting [7]), 8 h; in data set [2] (plasma, oral, human CLL, Week 1 Day-3 single dose, Mean of 3 subjects, read-out: Tmax) it was 7.3 h. Also, in data set [2] (human subjects), the “time to reach Cmax” value is “around 7 hours”. The “predicted AUC” value in data set [2] (human, 200 mg dose, predicted) is 30000 ng·h/mL. Moreover, the “observed AUC versus predicted AUC” value in data set [2] (human, normalized to 200 mg dose) was “about 2 fold”. In addition, the Cmax in data set [2] (setting [8]) turned out to be 1190 ng/mL; in data set [2] (human, plasma, oral, 150 mg, human CLL, Week 3 Day 1, QD dosing, ID 101, 150 mg) it was 1340 ng/mL; in data set [2] (setting [9]), 730 ng/mL; in data set [2] (setting [10]), 1570 ng/mL. The AUC(0-inf) in data set [2] (setting [8]) was determined as 36300 ng·h/mL; in data set [2] (setting [9]), 23300 ng·h/mL; in data set [2] (setting [10]), 76000 ng·h/mL. In addition, the half-life is 22.1 h in data set [2] (human, plasma, oral, 100 mg, human CLL, Week 1 Day-3 single dose, Subject 3, 100 mg, read-out: t1/2 (converted)); 30.6 h in data set [2] (human, plasma, oral, 200 mg, human CLL, Week 1 Day-3 single dose, Subject 1, 200 mg, read-out: t1/2 (converted)); 50.9 h in data set [2] (human, plasma, oral, 200 mg, human CLL, Week 1 Day-3 single dose, Subject 2, 200 mg, read-out: t1/2 (converted)); 30.7 h in data set [2] (human, plasma, oral, human CLL, Week 1 Day-3 single dose, Harmonic Mean of 3 subjects, read-out: t1/2 (converted)); 31 h in data set [2] (human, plasma, oral, human subjects, observed, read-out: terminal elimination half-life (converted)). Besides, the AUC in data set [2] (human, plasma, oral, 150 mg, read-out: AUC (AUCss,24)) amounted to 21100 ng·h/mL. In addition, in data set [2] (human, predicted), the “clearance, predicted value” is 10 L/h. In addition, in data set [2] (human, predicted), the “terminal elimination half-life, predicted value” was 15 h. Also, in data set [2] (plasma, oral, human subjects, observed), the clearance was 78.3 mL/min. Besides, in data set [2] (three CLL subjects, first cohort, initial dose 100-200 mg, 50 mg tablet form, all subjects), the “adverse event after the first dose” value is “tumor lysis syndrome”.
With `COCCON1C=C(Cl)C=C(S(=O)(=O)NC(=O)c2ccc(N3CCN(CC4=C(c5ccc(Cl)cc5)CC(C)(C)CC4)CC3)cc2Oc2cnc3[nH]ccc3c2)C1` [Compound 292, N-{[5-chloro-1-(2-methoxyethoxy)pyridin-3-yl]sulfonyl}-4-(4-{[2-(4-chlorophenyl)-4,4-dimethylcyclohex-1-en-1-yl]methyl}piperazin-1-yl)-2-(1H-pyrrolo[2,3-b]pyridin-5-yloxy)benzamide], at Bcl-2 protein, the affinity, expressed as Ki, was 0.19 nM.
In the case of `CC1(O)CCC(COc2ncc(S(=O)(=O)NC(=O)c3ccc(N4CCN(CC5=C(c6ccc(Cl)cc6)CC6(CC5)CC6)CC4)cc3Oc3cnc4[nH]ccc4c3)cc2Cl)CC1` (stereo not drawn) [Compound 341, N-({5-chloro-6-[(trans-4-hydroxy-4-methylcyclohexyl)methoxy]pyridin-3-yl}sulfonyl)-4-(4-{[5-(4-chlorophenyl)spiro[2.5]oct-5-en-6-yl]methyl}piperazin-1-yl)-2-(1H-pyrrolo[2,3-b]pyridin-5-yloxy)benzamide], the Ki at Bcl-2 protein is < 0.01 nM.
In the case of `CC1(C)CCC(CN2CCN(c3ccc(C(=O)NS(=O)(=O)c4cnc(NCC5CCC(C)(O)CC5)c([N+](=O)[O-])c4)c(Oc4cnc5[nH]ccc5c4)c3)CC2)=C(c2ccc(Cl)cc2)C1` (stereo not drawn) [Compound 371, 4-(4-{[2-(4-chlorophenyl)-4,4-dimethylcyclohex-1-en-1-yl]methyl}piperazin-1-yl)-N-[(6-{[(trans-4-hydroxy-4-methylcyclohexyl)methyl]amino}-5-nitropyridin-3-yl)sulfonyl]-2-(1H-pyrrolo[2,3-b]pyridin-5-yloxy)benzamide], the Ki at Bcl-2 protein was < 0.001 nM.
`CC1(C)CCC(CN2CCN(c3ccc(C(=O)NS(=O)(=O)c4cnc(OCC5(F)CCC(O)CC5)c(Cl)c4)c(Oc4cnc5[nH]ccc5c4)c3)CC2)=C(c2ccc(Cl)cc2)C1` (stereo not drawn) [Compound 350, N-({5-chloro-6-[(cis-1-fluoro-4-hydroxycyclohexyl)methoxy]pyridin-3-yl}sulfonyl)-4-(4-{[2-(4-chlorophenyl)-4,4-dimethylcyclohex-1-en-1-yl]methyl}piperazin-1-yl)-2-(1H-pyrrolo[2,3-b]pyridin-5-yloxy)benzamide]: the Ki on Bcl-2 protein is < 0.01 nM.
